Activity calls are given as the source filed them.
Experiments:
[1] = A cytotoxicity screen of small molecule inhibitors of the PhoP region in Salmonella typhi identified in the primary screen. [Related pubchem assays: 1850, 1864, 1985 ]; format: functional
[2] = target: Induced myeloid leukemia cell differentiation protein Mcl-1 (Homo sapiens, UniProt Q07820); format: functional
[3] = target: T1, Short transient receptor potential channel 4 (Mus musculus, UniProt Q9QUQ5); assay: mouse TRPC4 channel inhibitors, dose response, cell-based, HEK293 TRPC4/mu-opioid, Fluo-4 calcium (AID 434942); format: functional;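 note: potency of inhibitors blocking the TRPC4 calcium response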
T1 sequence (Q9QUQ5 whole entry): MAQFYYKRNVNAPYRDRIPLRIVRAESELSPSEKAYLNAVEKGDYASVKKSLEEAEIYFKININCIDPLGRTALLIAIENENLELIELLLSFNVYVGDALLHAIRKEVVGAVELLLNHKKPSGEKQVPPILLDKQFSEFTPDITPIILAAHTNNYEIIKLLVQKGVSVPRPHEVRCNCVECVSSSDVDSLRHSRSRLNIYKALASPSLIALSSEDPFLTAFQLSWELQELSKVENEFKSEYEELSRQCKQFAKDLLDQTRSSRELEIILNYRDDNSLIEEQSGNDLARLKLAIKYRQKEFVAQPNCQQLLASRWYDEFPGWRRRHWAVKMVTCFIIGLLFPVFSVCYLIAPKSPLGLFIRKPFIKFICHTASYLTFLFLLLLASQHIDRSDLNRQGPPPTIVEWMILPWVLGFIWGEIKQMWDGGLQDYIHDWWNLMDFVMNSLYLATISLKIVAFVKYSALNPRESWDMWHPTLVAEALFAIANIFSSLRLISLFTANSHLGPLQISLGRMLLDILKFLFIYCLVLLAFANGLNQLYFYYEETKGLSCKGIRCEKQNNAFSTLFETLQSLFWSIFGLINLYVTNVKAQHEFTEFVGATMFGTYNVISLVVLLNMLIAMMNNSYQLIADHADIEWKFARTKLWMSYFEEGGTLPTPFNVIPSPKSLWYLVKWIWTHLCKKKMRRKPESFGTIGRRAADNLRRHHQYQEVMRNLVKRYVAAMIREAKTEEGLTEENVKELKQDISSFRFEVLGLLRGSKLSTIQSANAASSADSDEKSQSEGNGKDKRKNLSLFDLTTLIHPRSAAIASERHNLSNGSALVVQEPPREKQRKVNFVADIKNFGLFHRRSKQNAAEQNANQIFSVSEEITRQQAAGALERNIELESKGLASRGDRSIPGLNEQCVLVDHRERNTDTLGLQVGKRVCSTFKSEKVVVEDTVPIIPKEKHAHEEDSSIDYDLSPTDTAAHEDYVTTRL

[4] = target: T2, Tyrosine-protein phosphatase non-receptor type 7 (Homo sapiens, UniProt P35236); assay: inhibitors of human HePTP phosphatase, […], biochemical, absorbance, leukemia target (AID 521); format: functional
T2 sequence (P35236 whole entry): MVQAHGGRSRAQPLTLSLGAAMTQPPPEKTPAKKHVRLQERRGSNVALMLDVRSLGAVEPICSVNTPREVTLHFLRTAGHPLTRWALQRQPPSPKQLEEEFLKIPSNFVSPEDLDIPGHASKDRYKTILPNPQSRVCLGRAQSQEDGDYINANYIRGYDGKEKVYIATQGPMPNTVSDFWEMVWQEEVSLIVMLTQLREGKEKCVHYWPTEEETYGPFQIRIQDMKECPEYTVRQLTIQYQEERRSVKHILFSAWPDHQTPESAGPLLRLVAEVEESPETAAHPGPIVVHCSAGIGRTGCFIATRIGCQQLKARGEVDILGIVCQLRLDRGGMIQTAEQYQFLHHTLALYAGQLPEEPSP

Leucine aminopeptidase = target: T3, Leucine aminopeptidase (Plasmodium falciparum 3D7, UniProt Q8IL11); assay: P. falciparum M17LAP inhibitors, primary screen, biochemical, fluorogenic H-Leu-NHMec substrate, 1536-well (AID 1619); format: functional
T3 sequence (Q8IL11 whole entry): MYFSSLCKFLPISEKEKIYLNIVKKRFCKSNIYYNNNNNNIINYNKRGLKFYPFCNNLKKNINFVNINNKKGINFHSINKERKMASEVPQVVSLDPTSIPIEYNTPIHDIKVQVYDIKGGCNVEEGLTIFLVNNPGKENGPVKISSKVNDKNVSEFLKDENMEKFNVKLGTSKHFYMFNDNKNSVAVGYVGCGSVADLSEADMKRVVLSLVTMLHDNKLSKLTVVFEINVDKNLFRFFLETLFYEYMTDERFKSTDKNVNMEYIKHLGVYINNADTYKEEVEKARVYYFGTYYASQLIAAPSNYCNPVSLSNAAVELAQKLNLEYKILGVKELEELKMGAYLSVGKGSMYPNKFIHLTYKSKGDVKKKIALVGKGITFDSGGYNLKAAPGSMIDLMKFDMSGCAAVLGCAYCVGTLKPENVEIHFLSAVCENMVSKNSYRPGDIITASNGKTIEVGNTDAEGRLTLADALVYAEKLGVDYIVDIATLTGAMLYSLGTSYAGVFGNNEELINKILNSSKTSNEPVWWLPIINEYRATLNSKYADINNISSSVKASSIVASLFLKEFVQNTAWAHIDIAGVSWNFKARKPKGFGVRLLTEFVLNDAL

[5] = growth suppression of PTEN-null colon cells, dose response, cell-based, HCT116 PTEN knockout (AID 1047); format: functional;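 note: HCT116 colon tumor cells with PTEN knocked out; cells exposed to compound for 60 hours before readout; potency for loss of cell viability measured by luminescence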
Estrogen receptor beta [6] = target: T4, Estrogen receptor beta (Homo sapiens, UniProt Q92731);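 note: recombinant ER-beta bound to coactivator SRC1 peptide in presence of estradiol agonist; inhibitors block coactivator peptide binding and lower the FRET signal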
T4 sequence (Q92731 whole entry): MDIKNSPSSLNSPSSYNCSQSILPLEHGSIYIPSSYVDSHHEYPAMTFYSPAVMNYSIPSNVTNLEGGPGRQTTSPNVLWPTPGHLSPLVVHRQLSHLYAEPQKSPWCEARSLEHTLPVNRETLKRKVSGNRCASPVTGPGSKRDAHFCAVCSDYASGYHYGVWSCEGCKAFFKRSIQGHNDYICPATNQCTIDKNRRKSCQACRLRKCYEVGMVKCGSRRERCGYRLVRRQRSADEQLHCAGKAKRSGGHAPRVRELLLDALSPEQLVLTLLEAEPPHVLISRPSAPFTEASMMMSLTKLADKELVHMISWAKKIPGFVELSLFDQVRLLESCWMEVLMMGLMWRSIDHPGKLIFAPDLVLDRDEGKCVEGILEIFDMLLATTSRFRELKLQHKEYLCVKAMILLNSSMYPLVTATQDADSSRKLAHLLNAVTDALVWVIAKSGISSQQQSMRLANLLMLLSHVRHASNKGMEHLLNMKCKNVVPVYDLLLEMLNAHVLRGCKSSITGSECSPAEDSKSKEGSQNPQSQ

Estrogen receptor beta [7] = target: T4, Estrogen receptor beta; assay: ERβ–SRC-3 coactivator interaction inhibitors, confirmation, orthogonal assay, biochemical, ELISA, streptavidin-HRP readout (AID 1060)
[8] = growth suppression of beta-catenin-knockout colon cells, dose response, cell-based, HCT116, human colon tumor (AID 1045); format: functional;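 note: HCT116 colon tumor cells with beta catenin knocked out; cells exposed to compound for 60 hours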
Estrogen receptor = target: T5, Estrogen receptor (Homo sapiens, UniProt P03372);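 note: potency for inhibiting coactivator peptide recruitment to the receptor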
T5 sequence (P03372 whole entry): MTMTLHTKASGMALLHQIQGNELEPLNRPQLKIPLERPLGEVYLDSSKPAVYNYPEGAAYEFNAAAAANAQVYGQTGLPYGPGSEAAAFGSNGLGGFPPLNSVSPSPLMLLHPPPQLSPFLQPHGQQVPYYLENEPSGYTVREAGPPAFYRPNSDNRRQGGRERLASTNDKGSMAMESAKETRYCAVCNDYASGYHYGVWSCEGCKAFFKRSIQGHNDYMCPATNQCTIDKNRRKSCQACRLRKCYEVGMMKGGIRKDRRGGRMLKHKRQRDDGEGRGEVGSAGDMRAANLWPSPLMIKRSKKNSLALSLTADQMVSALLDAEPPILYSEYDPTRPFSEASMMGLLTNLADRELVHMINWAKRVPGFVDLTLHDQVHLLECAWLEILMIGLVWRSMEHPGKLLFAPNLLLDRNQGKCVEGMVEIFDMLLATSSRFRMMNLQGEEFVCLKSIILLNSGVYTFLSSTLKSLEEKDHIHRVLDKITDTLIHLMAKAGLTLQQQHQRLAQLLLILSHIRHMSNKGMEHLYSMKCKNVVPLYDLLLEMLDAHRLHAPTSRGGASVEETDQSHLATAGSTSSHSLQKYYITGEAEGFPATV

Aminopeptidase N = target: T6, Aminopeptidase N (Plasmodium falciparum FcB1/Columbia, UniProt O96935); assay: P. falciparum M1AAP inhibitors, biochemical, fluorogenic H-Leu-NHMec substrate, 1536-well (AID 1445); set-up: species or system Plasmodium falciparum 3D7, 3D7
T6 sequence (O96935 whole entry): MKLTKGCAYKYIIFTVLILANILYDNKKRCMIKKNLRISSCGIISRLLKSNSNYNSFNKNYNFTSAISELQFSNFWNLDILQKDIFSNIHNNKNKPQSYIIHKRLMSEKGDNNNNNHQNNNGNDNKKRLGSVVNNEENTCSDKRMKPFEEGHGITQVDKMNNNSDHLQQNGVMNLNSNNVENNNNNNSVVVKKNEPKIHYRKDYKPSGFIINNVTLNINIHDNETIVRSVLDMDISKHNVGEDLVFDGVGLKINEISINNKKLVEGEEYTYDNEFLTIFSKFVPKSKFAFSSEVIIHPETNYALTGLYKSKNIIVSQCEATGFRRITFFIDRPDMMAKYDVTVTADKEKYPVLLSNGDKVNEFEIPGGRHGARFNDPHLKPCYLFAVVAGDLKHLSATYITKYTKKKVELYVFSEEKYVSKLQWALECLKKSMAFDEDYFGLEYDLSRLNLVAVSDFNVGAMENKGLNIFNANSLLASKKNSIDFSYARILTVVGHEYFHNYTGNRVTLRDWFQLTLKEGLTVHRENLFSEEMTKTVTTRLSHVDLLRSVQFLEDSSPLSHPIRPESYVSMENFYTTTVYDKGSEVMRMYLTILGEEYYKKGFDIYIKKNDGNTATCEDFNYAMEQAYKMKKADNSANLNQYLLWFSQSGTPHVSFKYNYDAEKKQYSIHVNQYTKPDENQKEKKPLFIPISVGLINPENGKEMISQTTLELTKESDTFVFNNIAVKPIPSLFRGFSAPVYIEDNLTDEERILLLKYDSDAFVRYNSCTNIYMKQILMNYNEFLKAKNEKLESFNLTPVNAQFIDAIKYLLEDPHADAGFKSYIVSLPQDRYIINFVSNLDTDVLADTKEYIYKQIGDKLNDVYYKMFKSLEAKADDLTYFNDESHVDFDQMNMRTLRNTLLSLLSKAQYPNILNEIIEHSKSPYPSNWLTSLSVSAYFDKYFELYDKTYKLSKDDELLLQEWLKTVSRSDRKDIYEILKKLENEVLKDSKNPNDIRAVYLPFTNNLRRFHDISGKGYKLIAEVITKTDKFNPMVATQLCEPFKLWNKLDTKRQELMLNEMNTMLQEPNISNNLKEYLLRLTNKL

[9] = target: FAD-linked sulfhydryl oxidase ALR (Homo sapiens, UniProt P55789); assay: inhibitors of human ALR sulfhydryl oxidase, dose response, biochemical, H2O2 detection, luminescence, cherry-pick (AID 493248)
Chain of FAD-linked sulfhydryl oxidase ALR (P55789 whole entry): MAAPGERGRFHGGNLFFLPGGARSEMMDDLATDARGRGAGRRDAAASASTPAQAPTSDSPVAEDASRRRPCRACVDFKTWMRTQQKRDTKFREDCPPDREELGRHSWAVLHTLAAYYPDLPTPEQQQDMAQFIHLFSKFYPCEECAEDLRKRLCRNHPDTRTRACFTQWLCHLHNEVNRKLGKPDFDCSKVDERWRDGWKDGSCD

[10] = target: T7, Mannose-6-phosphate isomerase (Homo sapiens, UniProt P34949); assay: human PMI inhibitors, high substrate, primary screen, biochemical, fluorescence intensity, high mannose 6-phosphate (AID 1220)
T7 sequence (P34949 whole entry): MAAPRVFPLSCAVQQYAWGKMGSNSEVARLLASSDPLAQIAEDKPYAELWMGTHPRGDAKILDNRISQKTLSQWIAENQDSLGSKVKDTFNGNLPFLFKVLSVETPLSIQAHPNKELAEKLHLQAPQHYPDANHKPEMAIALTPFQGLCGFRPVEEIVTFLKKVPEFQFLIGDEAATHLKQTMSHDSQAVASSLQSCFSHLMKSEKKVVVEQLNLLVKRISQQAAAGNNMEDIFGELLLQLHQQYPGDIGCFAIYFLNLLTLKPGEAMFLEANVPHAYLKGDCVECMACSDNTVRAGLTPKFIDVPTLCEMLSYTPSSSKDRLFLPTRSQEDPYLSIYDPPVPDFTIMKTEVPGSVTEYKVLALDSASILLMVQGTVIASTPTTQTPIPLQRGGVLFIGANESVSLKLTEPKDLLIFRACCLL

[11] = target: Eukaryotic translation initiation factor 4E (Mus musculus, UniProt P63073); assay: eIF4E–eIF4G protein interaction inhibitors, dose response, biochemical, TR-FRET (AID 855); format: functional;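 note: potency for disrupting eIF4E binding to eIF4GI seen as loss of FRET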
Chain of Eukaryotic translation initiation factor 4E (P63073 whole entry): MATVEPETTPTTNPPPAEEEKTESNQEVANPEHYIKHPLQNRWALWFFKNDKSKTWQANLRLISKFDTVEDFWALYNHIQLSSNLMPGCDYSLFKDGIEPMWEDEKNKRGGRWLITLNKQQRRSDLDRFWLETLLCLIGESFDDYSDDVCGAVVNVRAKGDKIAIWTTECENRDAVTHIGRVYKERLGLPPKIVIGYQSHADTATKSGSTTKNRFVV

[12] = target: T8, Trace amine-associated receptor 1 (Homo sapiens, UniProt Q96RJ0); assay: Fluorescence-based cell-based high throughput dose response assay to identify agonists of the human trace amine associated receptor 1 (TAAR1).; format: functional
T8 sequence (Q96RJ0 whole entry): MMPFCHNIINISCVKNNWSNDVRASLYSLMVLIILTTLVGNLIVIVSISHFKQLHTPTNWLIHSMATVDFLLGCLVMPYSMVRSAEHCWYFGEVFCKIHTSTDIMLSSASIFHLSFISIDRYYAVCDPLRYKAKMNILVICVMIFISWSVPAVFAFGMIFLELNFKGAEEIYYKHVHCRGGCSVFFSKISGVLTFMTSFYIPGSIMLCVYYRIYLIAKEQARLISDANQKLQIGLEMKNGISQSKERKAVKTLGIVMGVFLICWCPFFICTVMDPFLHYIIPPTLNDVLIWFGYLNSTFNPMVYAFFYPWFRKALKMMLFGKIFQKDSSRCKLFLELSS

cells [13] = format: functional, cell-based
cells [14] = format: functional, cell-based; remark: listed apart in the source
[15] = target: T8, Trace amine-associated receptor 1; assay: Counterscreen for agonists of the human trace amine associated receptor 1 (hTAAR1): Fluorescence-based cell-based high throughput dose response assay to identify hTAAR1 agonist that also desensitize TAAR1 receptor response.; format: functional

Chain of Induced myeloid leukemia cell differentiation protein Mcl-1 (Q07820 whole entry): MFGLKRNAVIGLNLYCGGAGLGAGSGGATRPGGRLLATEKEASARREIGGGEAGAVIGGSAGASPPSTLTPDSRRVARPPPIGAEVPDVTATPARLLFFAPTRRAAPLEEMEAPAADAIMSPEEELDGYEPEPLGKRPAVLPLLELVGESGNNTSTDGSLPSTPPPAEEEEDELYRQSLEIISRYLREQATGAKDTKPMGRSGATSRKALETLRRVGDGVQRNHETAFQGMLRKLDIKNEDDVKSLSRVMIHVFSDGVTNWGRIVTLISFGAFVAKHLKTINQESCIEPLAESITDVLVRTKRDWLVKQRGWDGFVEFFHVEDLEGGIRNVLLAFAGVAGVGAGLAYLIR

## CCN1CCCC1Cn1cnc2c3cc(Cl)ccc3nc-2c1O (stereo not given)
[1]
  EC50: > 50 µM (active)

## O=C(c1ccco1)N1CCCN(Cc2nc(-c3ccc4c(c3)OCO4)no2)CC1
[1]
  EC50: > 50 µM (active)

## CCc1cc(C(=O)N=Nc2c(O)[nH]c3ccc([N+](=O)[O-])cc23)c2ccccc2n1
[2]
  IC50: 6.88 µM (active)

## Cn1c(=O)c2c(nc(SCc3cccnc3)n2Cc2ccc(F)cc2)n(C)c1=O
[3]
  EC50: 0.944 µM (active)
[4]
  IC50: > 100 µM (not active)

## Cn1nnnc1SCC1=C(C(=O)O)N2C(=O)[C@@H](NC(=O)[C@H](O)c3ccccc3)[C@H]2SC1 [CEFAMANDOLE SODIUM]
Leucine aminopeptidase
  IC50: 12.1 µM (active)
[4]
  IC50: 0.1 µM (active)

## CC(C)OC(=O)c1cccc(C(=O)Oc2ccc(Br)cc2)n1
[1]
  EC50: > 50 µM (active)

## CCOc1cccc2cc(-c3cn4cc(C)ccc4n3)c(=O)oc12
[5]
  EC50: 1.33 µM (active)
Estrogen receptor beta [6]
  IC50: > 50 µM (not active)
Estrogen receptor beta [7]
  IC50: > 50 µM (not active)
[8]
  EC50: 2.46 µM (active)
Estrogen receptor
  IC50: 3.82 µM (active)

## CC(C)CCNC(=O)c1cc2c(s1)-c1ccccc1S(=O)(=O)C2
[1]
  EC50: > 50 µM (active)

## Cc1c(CCC(=O)O)c(=O)oc2cc3occ(-c4ccc(F)cc4)c3cc12
Aminopeptidase N
  IC50: 16.3 µM (active)
[9]
  AC50: 2.68 µM (active)

## OCCN1CCN(C(c2cccs2)c2ccc3cccnc3c2O)CC1 (stereo not given)
[10]
  IC50: > 50 µM (not active)
Estrogen receptor beta [7]
  IC50: 2.82 µM (active)
[11]
  IC50: > 64 µM (inactive)

## O=C(Cc1ccc(S(=O)(=O)N2CCOCC2)s1)NCCC(c1ccccc1)c1ccccc1
Aminopeptidase N
  IC50: 2.76 µM (active)

## CN1CCN(c2ccc(NC(=O)c3cccc(OCc4ccccc4)c3)cc2)CC1
[12]
  EC50: 9.36 µM (active)
Cells [13]
  EC50: > 29.9 µM (inactive)
Cells [14]
  IC50: > 29.9 µM (inactive)
Estrogen receptor beta [7]
  IC50: 0.0793 µM (not active)
[15]
  IC50: 9.06 µM (active)

From ChEMBL document CHEMBL1201862, “PubChem BioAssay data set” (2004)
